Assay results reported in PMC12640663 (Chemmedchem, 2025).
Several values for one entry are separate records, joined by “and”; a condition that tells them apart may be missing. Equal entries are not always repeated. Entries after “also recorded” stand apart in the source; their conditions may differ. Where two headings read alike, the source gives them in different places.

Columns and labels:
[1] = system: insulin‐resistant HepG2 cells; test: Insulin‐resistant HepG2 model, western blotting of PTP1B and pAKT; format: cell-based; conditions: 24 h, western blot
Description: (§1) Subsequently, we evaluated the same compounds in a HepG2 insulin‐resistant model.
Bar graphs represent the mean ± SEM of normalized values. The control levels were set at 1. T‐test significance *p < 0.05, when compared with control (DMSO). Statistical analyses were carried out using GraphPad Prism 8.0.
For the resistant insulin model using HepG2 cells, the following reagents were acquired from Sigma–Aldrich (Toluca, MEX, Mexico, and St. Louis, MO, USA): Insulin (I2643), Dulbecco's modified eagle's medium (DMEM) low glucose media (D5523), Trypsin‐EDTA solution (T4174), antibiotic‐antimycotic solution(A5955), dimethyl sulfoxide (DMSO‐D8418), sodium deoxycholate (D6750), triethylammonium bicarbonate buffer 1 M (TEAB‐T7408), glutaraldehyde 25% (G6275), acetic acid (695092), and crystal violet (C0775). The bicinchoninic acid protein quantitation kit (23225) and the Halt Cocktail with protease and phosphatase inhibitors (1861281) were acquired from ThermoFisherScientific. Fetal bovine serum (26140–079) was from Gibco. The chemiluminescent solution (170–5061) was acquired from Biorad. Rabbit anti‐PTP1B (5311S) and mouse anti‐β actin (3700S) primary antibodies were obtained from Cell Signaling, and secondary antibodies coupled with horseradish peroxidase were from Jackson laboratories (rabbit‐111−035, mouse‐115–035).
Treated cells with compounds were washed twice with 1 mL of PBS, and protein was extracted using 500 µL of a buffer solution containing 10% sodium deoxycholate in 10% TEAB, supplemented with a protease and phosphatase inhibitor cocktail. The extracts were heated to 80 °C for 5 min and disaggregated through passages with an insulin syringe. The cell extracts were centrifuged at 15,000 rpm for 15 min at 4 °C, and the supernatant was collected. Protein quantification was performed using the bicinchoninic acid assay method, and aliquots were prepared for western blotting. SDS/PAGE was conducted, and proteins were transferred onto a nitrocellulose membrane. The membrane was then blocked with 10% skimmed milk in TBST for 1 h and incubated overnight with primary antibodies (1:400 dilution). Secondary antibodies coupled to horseradish peroxidase were diluted 1:2000, and membranes were incubated for 1 h. The blots were documented using the ChemiDoc MP (Bio‐Rad), and densitometric analysis was performed using ImageJ (U.S. National Institutes of Health). Statistical analyses were carried out using GraphPad Prism 8.0.

[2] = biological target: T1, TCPTP (Homo sapiens, UniProt P17706); test: T‐cell protein tyrosine phosphatase (TCPTP) activity assay (p‐NPP); format: biochemical; conditions: for TCPTP inhibition (in words): up to 100 μM
T1 sequence (P17706 1-415): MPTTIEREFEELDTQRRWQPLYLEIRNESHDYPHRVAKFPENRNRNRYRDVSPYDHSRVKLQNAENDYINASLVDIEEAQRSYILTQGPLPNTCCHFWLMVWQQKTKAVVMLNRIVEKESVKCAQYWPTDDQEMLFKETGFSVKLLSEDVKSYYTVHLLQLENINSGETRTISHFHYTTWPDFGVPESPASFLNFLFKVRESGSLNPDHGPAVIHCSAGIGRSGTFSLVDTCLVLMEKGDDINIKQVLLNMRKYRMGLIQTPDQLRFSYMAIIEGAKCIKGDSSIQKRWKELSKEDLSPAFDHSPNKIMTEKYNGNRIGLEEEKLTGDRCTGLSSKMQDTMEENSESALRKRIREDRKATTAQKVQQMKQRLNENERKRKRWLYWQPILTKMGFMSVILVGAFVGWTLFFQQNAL
Description: The effectiveness and safety of protein tyrosine phosphatase (PTP) inhibitors depend on their specificity. PTP1B and TCPTP serve different functions: PTP1B is involved in metabolism and cancer, while TCPTP regulates immune function. Inhibiting TCPTP could impact the immune response, whereas inhibiting PTP1B may benefit metabolic diseases without these side effects.^[ [20] ^, [34] ^, [35] ^] […] These compounds were assessed up to 100 μM (Table 1).
TCPTP enzyme reported by Mendoza et al. was used for this assay. […] Aliquots of 0–10 µL (triplicate) of the newly synthesized compounds, positive control, and solvent were taken. These were incubated with 85 µL of enzyme solution (Tris, 50 mM, pH 6.8, TCPTP) and 5 µL of substrate (p‐NPP, 10 mM) for 15 min at 37 °C.

[3] = system: HepG2 cells; test: Cell viability with crystal violet; format: cell-based; conditions: 1 and 25 µM, 24 h
Description: as §1
A 96‐well plate was seeded with 3,000 cells per well and incubated for 24 h. Afterward, the cells were treated with test compounds at various concentrations for 24 h. After incubation, the media was removed, and 100 µL of 1% glutaraldehyde was added for 15 min. Afterward, the liquid was removed, and 50 µL of 0.5% crystal violet (dissolved in 25% methanol) was added for 30 min. The crystal violet staining solution was removed, and the plate was thoroughly washed with tap water. The precipitate was dissolved in a 10% acetic acid solution and mixed for 15 min. The absorbance was then measured at 590 nm using a plate reader (xMark Microplate Spectrophotometer—Bio‐Rad).
Figure S59. Cell viability assessment by crystal violet staining. HepG2 cell viability was evaluated
after treatment with the respective compounds at concentrations of 1 and 25 µM for 24 hours. Bar
graphs represent mean ± SEM.

[4] = biological target: T2, hPTP1B1–285 (Homo sapiens, UniProt P18031); test: PTP1B activity assay, short form hPTP1B1–285 (p‐NPP); format: biochemical; conditions: ± S.D; p‐NPP substrate, 15 min at 37 °C
T2 construct: hPTP1B1–285 (the short form with an N‐terminal catalytic domain)
T2 sequence (P18031 1-285): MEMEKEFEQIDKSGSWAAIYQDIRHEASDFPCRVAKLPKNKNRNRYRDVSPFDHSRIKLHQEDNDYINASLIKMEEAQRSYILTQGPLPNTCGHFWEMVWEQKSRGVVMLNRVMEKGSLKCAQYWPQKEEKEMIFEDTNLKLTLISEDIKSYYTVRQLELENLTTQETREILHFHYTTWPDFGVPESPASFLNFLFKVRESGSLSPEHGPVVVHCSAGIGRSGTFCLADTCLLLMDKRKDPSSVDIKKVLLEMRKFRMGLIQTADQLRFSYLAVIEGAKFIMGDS
Description: (§2) The inhibitory activity of PTP1B was assessed using two enzyme variants: hPTP1B1–285 (the short form with an N‐terminal catalytic domain) and hPTP1B1–400 (the long form with an intrinsically disordered C‐terminal regulatory domain). […] According to Coronel‐Tovar et al., the disordered region of the C‐terminal domain plays a crucial role in modulating PTP1B enzymatic activity.^[ [30] ^] […] Different concentrations of the compounds were evaluated to determine their IC50 values (Table 1 ).
To do so, these terpenoids were tested against hPTP1B1–285.
(§3) Recombinant human protein tyrosine phosphatase 1B, consisting of 400 and 285 amino acid residues, was used.^[ [35] ^] […] Aliquots of 0–10 µL of the test compounds (triplicate) were taken and incubated for 15 min at 37 °C with 85 µL of Tris buffer solution (50 mM, pH 6.8) containing PTP1B enzyme and 5 µL of p‐nitrophenyl phosphate substrate (p‐NPP, 10 mM). Absorbance was then measured at a wavelength of 405 nm. The inhibitory activity was determined according to Equation (1). (1) % PTP1B=(A405b/A405c)×100 where % PTP1B: Is the percentage of inhibition. A 405c: Is the corrected absorbance of the blank (A 405initial–A 405final). A 405b: Is the corrected absorbance of the compounds (A 405control–A 405compound).

[5] = biological target: T3, hPTP1B1–400 (Homo sapiens, UniProt P18031); test: PTP1B activity assay, long form hPTP1B1–400 (p‐NPP); format: biochemical; parameters: hPTP1B1–400 (the long form with an intrinsically disordered C‐terminal regulatory domain); conditions: for IC50: ± S.D, p‐NPP substrate, 15 min at 37 °C, triplicate
T3 sequence (P18031 1-400): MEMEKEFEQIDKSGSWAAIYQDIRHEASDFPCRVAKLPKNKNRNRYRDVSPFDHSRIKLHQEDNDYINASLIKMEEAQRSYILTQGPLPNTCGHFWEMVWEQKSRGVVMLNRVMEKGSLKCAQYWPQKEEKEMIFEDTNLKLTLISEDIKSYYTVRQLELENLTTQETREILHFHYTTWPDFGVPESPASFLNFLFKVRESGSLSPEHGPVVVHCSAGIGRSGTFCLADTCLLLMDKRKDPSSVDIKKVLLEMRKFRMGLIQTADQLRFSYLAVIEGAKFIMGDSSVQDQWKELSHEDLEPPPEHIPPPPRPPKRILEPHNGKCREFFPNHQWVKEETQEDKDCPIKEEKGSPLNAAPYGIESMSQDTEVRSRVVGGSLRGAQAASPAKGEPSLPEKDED
Description: as §2, §3

[6] = biological target: T3, hPTP1B1–400; test: Kinetic studies of PTP1B (hPTP1B1–400);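 further: enzyme kinetics run across a range of substrate and inhibitor levels, control lacking inhibitor, triplicate runs, parameters derived by fitting Michaelis–Menten style equations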
Description: Kinetic analyses were performed at various substrate and inhibitor concentrations.
The negative control was prepared with the enzyme and substrate in the absence of the inhibitor. Experiments were conducted in triplicate.^[ [30] ^] […] The kinetic parameters of enzyme inhibition, K m and V max, were determined by fitting the data to the Michaelis‐Menten model, Equation (3) (OriginPro 2018 (64‐bit) SR1). (3) y=VmaxX/Km+X´ where V max: is the maximum velocity, X: is the inhibitor concentration, K m: Michaelis constant.
(4) y=Vmax(X)/(Km/1+I/Ki)+X where V max: maximum velocity, X: substrate concentration, I: inhibitor concentration, K m: Michaelis constant, K i : inhibition constant.

[7] = system: streptozotocin‐induced diabetic rats; parameters: method as in PMID 37628991; conditions: cited from earlier work
[8] = system: PTP1B; conditions: cited from earlier work
[9] = parameters: method as in PMID 37628991; conditions: cited from earlier work
[10] = ± S.D, assessed up to 100 μM, read-out: TCPTP IC50
[11] = ± S.D, hPTP1B1–400 with inhibitor
[12] = streptozotocin‐induced diabetic rats

| Compound | AKT phosphorylation (pAKT) levels [1] | PTP1B levels [1] | IC50 [2, 10] [µM] | HepG2 cell viability [3] | IC50 [4] [µM] | IC50 [5] [nM] | TCPTP inhibition (in words) [2] | antidiabetic activity [7] | times better potency against PTP1B than 18β‐GA [8] [times] | type of PTP1B inhibition [8] | doses at which safe [9] | further results |
| --- | --- | --- | --- | --- | --- | --- | --- | --- | --- | --- | --- | --- |
| CN(C)C(=N)N=C(N)N [metformin] | significant increase | neither metformin, ursolic acid, nor GA derivatives significantly reduced PTP1B levels | – | – | – | – | – | – | – | – | – | – |
| C[C@H]1[C@H](C)CC[C@]2(C(=O)O)CC[C@]3(C)C(=CC[C@@H]4[C@@]5(C)CC[C@H](O)C(C)(C)[C@@H]5CC[C@]43C)[C@H]12 [UA, ursolic acid] | did not demonstrate a notable change | neither metformin, ursolic acid, nor GA derivatives significantly reduced PTP1B levels | – | – | – | – | – | – | – | – | – | IC50 [2]: > 100 µM |
| Cc1ccc(-n2ncc3c2C(C)(C)C2CCC4(C)C(C(=O)C=C5C6CC(C)(C(=O)O)CCC6(C)CCC54C)C2(C)C3)cc1 (stereo not drawn) [Compound 5c] | – | – | > 100 | No significant differences; also recorded: did not compromise HepG2 cell viability | 31.6 ± 0.88 | 1570 ± 40 | – | – | – | – | – | Ki ([6]; K i, ± S.D, hPTP1B1–400, p‐NPP 0.1 to 0.5 mM): 220 nM and 224 nM; Inhibition type ([6]; hPTP1B1–400): uncompetitive inhibition; K m [6, 11]: 1.42 ± 0.32 mM; V max [6, 11]: 1.54 ± 0.28 mM/min |
| CC1(C(=O)O)CCC2(C)CCC3(C)C(=CC(=O)C4C5(C)Cc6c([nH]c7ccc(C(F)(F)F)cc67)C(C)(C)C5CCC43C)C2C1 (stereo not drawn) [FC‐114] | – | – | > 100 | did not compromise HepG2 cell viability | – | 480 ± 6 | did not inhibit TCPTP | showed antidiabetic activity | 25 | noncompetitive inhibitor | below 2000 mg kg^−1 | HepG2 cell viability ([3]; listed as FC-114): No significant differences; insulin levels ([7]; streptozotocin‐induced diabetic rats, compared with glibenclamide): increased insulin levels more than glibenclamide; HDL cholesterol [7, 12]: without affecting HDL cholesterol; total cholesterol levels [7, 12]: significantly reduced total cholesterol levels |
| Cc1ccc(-n2ncc3c2C(C)(C)C2CCC4(C)C(C(=O)C=C5C6CC(C)(C(=O)O)CCC6(C)CCC54C)C2(C)C3)cc1 (stereo not drawn) [FC‐122] | – | – | > 100 | did not compromise HepG2 cell viability | 25.1 ± 0.85 | 1150 ± 40 | did not inhibit TCPTP | showed antidiabetic activity | 14 | uncompetitive inhibitor | below 2000 mg kg^−1 | HepG2 cell viability ([3]; listed as FC-122): No significant differences; fold more potent than the alpha epimer ([5]; beta epimer vs alpha epimer (FC‐114 vs 3c, FC‐122 vs 5c), hPTP1B1–400 IC50): 1.3 fold |
